Series [1] deals with Plasmodium falciparum. As to the kind of experiment: NOVARTIS: Inhibition of Plasmodium falciparum 3D7 (drug-susceptible) proliferation in erythrocyte-based infection assay. In kind it is functional, organism-based. The conditions noted are these: Plasmodium falciparum, 3D7.
The nature of series [2]: NOVARTIS: Cytotoxicity against human hepatocellular carcinoma cell line (Huh7). It counts as toxicity, cell-based, Huh-7. The conditions noted are these: Huh7 cells (hepatocellular carcinoma cell line).
The test system of series [3] is Plasmodium falciparum. As to the kind of experiment: NOVARTIS: Inhibition of Plasmodium falciparum W2 (drug-resistant) proliferation in erythrocyte-based infection assay. It counts as functional, organism-based. The settings on record: Plasmodium falciparum, W2; read-out: EC50.

As a reminder, the EC50 is the concentration giving half of the maximal effect. By CC50 is commonly meant the concentration that lowers cell viability or growth by half. Turning to `CC(C)c1ccc(NC(=O)c2ccc(NCCCN(C)Cc3ccccc3)c([N+](=O)[O-])c2)cc1`, the results for the EC50 with Plasmodium falciparum [1] and in the series on Plasmodium falciparum [3] were 2.48 µM and 3.2 µM, respectively. Further, the CC50 in series [2] was greater than 100 µM.
As for `CC(C)CN1CCN(c2nc(C#N)c3c(c2C(=S)NC2CCCCC2)CC(C)(C)OC3)CC1`, the figures for the EC50 in the series on Plasmodium falciparum [1] and in the series with Plasmodium falciparum [3] were 0.37 µM and 0.319 µM, respectively. In series [2], the CC50 was greater than 10 µM.
On to `Cc1cccc(-n2c(CNC(=O)c3ccc(S(=O)(=O)N4CCCCC4)cc3)nnc2SCC(=O)Nc2nccs2)c1`, for which the EC50 in the series with Plasmodium falciparum [1] was 4.2 µM; in the series on Plasmodium falciparum [3], 2.17 µM. This molecule also registered a CC50 in series [2] of 67.1 µM.
As to `C[n+]1ccccc1/C=C/c1ccc(Br)cc1`, the EC50 in the series on Plasmodium falciparum [1] was found to be 0.36 µM; in the series on Plasmodium falciparum [3] it was 0.324 µM. In addition, the CC50 in series [2] was greater than 10 µM.
In the case of `O=C(NNC(=S)NCc1ccco1)C(F)(F)F`, the results for the EC50 in the series on Plasmodium falciparum [1] and in the series with Plasmodium falciparum [3] were greater than 12.5 µM and 3.17 µM, respectively. In series [2], the CC50 was greater than 100 µM.
For `Cc1ccc(-c2cc(C(F)(F)F)n3nc(C(=O)Nc4cccc(Cl)c4Cl)cc3n2)cc1`, the values for the EC50 in the series with Plasmodium falciparum [1] and in the series with Plasmodium falciparum [3] were greater than 1.25 µM and greater than 0.321 µM, respectively. For the same molecule, the CC50 in series [2] is greater than 10 µM.
Taken in the same sequence, the figures for `COc1ccc(-c2csc(Nc3ccc(O)cc3)n2)cc1OC` were 2.96 µM, 3.21 µM and greater than 100 µM.
On to `COCCN1C(=O)c2[nH]nc(-c3ccccc3O)c2C1c1ccc(SC)cc1` (centres undefined), for which the EC50 with Plasmodium falciparum [1] was 7.39 µM; with Plasmodium falciparum [3], 2.78 µM. This molecule registered a CC50 in series [2] greater than 87.7 µM.
On to `CCOc1cc(C=NN=C(N)N)ccc1OCc1ccccc1`, for which the values for the EC50 in the series with Plasmodium falciparum [1] and in the series with Plasmodium falciparum [3] were 0.235 µM and 0.321 µM, respectively. Also, the CC50 in series [2] is 10.1 µM.
Turning to `O=S(=O)(NCCCCNc1ccnc2cc(Cl)ccc12)c1cc(Cl)ccc1Cl`, the EC50 in the series on Plasmodium falciparum [1] was found to be 0.391 µM; in the series with Plasmodium falciparum [3], 0.338 µM. The CC50 in series [2] was greater than 10.7 µM.
As for `O=C(NCc1cccnc1)[C@@H]1C[C@H](NC2CCN(CCc3ccccc3)CC2)CN1Cc1ccc(Cl)cc1`, the values for the EC50 in the series with Plasmodium falciparum [1] and with Plasmodium falciparum [3] were 0.0885 µM and 0.592 µM, respectively. This molecule registered a CC50 in series [2] of 18.5 µM.
On to `CCCCN1Cc2ccc(C(=O)NC(C)C)cc2N=C1c1ccc(F)cc1`, for which the figures for the EC50 with Plasmodium falciparum [1] and in the series on Plasmodium falciparum [3] were 0.722 µM and 0.325 µM, respectively. This molecule had a CC50 in series [2] greater than 10 µM.
On to `CCN(CC)c1ccc(NCc2ccc3c(c2)OCO3)cc1`, for which the values for the EC50 in the series with Plasmodium falciparum [1] and in the series with Plasmodium falciparum [3] were 0.603 µM and 0.805 µM, respectively. Moreover, the CC50 in series [2] was 24.6 µM.
`c1cc2cc(CN3CCc4nc(N5CCCCC5)sc4C3)ccc2[nH]1`: the EC50 came out at 0.41 µM with Plasmodium falciparum [1] and 0.326 µM in the series on Plasmodium falciparum [3]. Also, in series [2], the CC50 was greater than 10 µM.
Consider `Cc1cccc(CC(=O)N2CCC[C@@H]3CN(C(=O)CCc4cccnc4)CC[C@@H]32)c1`, for which the EC50 with Plasmodium falciparum [1] was greater than 1.25 µM; with Plasmodium falciparum [3], 0.317 µM. The CC50 in series [2] was greater than 10 µM.
With `CN(C)c1oc(-c2ccc(Cl)cc2Cl)nc1[P+](c1ccccc1)(c1ccccc1)c1ccccc1`, the values for the EC50 with Plasmodium falciparum [1] and with Plasmodium falciparum [3] were 0.23 µM and 0.365 µM, respectively. Besides, the CC50 in series [2] was found to be 11.6 µM.
Turning to `CCCCC(CC)C(=O)N(CCCC(C)Nc1cc(OC)cc2cccnc12)Cc1ccc(OC)c(OC)c1` (centres undefined), the EC50 in the series with Plasmodium falciparum [1] was determined as 0.442 µM; in the series on Plasmodium falciparum [3], 0.328 µM. Besides, in series [2], the CC50 is greater than 10 µM.
As for `COc1ccc(NC(=O)c2cnn(-c3ccccc3)c2NC(=O)c2ccco2)cc1`, the 50% effective concentration (EC50) in the series with Plasmodium falciparum [1] was 8 µM; in the series with Plasmodium falciparum [3] it was 3.23 µM. In series [2], the CC50 is greater than 100 µM.
`CC(C)(CCl)C(=O)NCCCCNc1ccnc2cc(Cl)ccc12`: the EC50 stood at 0.386 µM with Plasmodium falciparum [1] and 0.361 µM with Plasmodium falciparum [3]. Also, the CC50 in series [2] was greater than 11.3 µM.
Consider `CCCCN1C(=O)NC(c2ccc(NC(=O)c3cccs3)cc2)C(C(=O)OC(C)C)=C1C` (centres undefined), for which the EC50 amounted to 8.76 µM with Plasmodium falciparum [1] and 3.17 µM in the series with Plasmodium falciparum [3]. Also, the CC50 in series [2] was greater than 100 µM.
As to `COc1ccccc1N1CCN(C(=O)Nc2ccc3ccccc3c2)CC1`, the EC50 in the series with Plasmodium falciparum [1] is greater than 1.28 µM; in the series with Plasmodium falciparum [3], 0.315 µM. In series [2], this molecule had a CC50 greater than 10 µM.
Regarding `CCCOc1ccc2c(c1)C(=NN=C(N)N)c1cc(OCCC)ccc1-2`, the EC50 with Plasmodium falciparum [1] came to 0.27 µM; in the series on Plasmodium falciparum [3], 0.323 µM. The same molecule registered a half-maximal cytotoxic concentration (CC50) in series [2] greater than 10 µM.
For `C=CC1(C)CC23CC(C(OC(=O)c4ccccc4)c4ccnc5ccccc45)N2CCC13` (centres undefined), the EC50 in the series with Plasmodium falciparum [1] turned out to be 0.176 µM; with Plasmodium falciparum [3], 0.938 µM. Moreover, half-maximal cytotoxicity in series [2] (CC50) was put at 29.2 µM.
The corresponding values for `Cc1cc(Nc2cccc(F)c2)nc(NCc2ccccc2)n1` are 0.0722 µM, 0.664 µM and 20.8 µM.
Taken in the same sequence, the figures for `CCCCCN(C(=O)c1cccc(OC)c1)C(CC)c1nc2ccccc2c(=O)n1-c1ccccc1OC` (centres undefined) were 0.614 µM, 0.318 µM and greater than 10 µM.
In the case of `COC(=O)c1ccc(C=NNc2cc(C)nc3ccc(OC)cc23)cc1`, the EC50 amounted to 0.204 µM in the series with Plasmodium falciparum [1] and 0.537 µM with Plasmodium falciparum [3]. This molecule also showed a CC50 in series [2] of 16.5 µM.
In the case of `COc1ccc(Nc2nc(N3CCCC3)c3ccccc3n2)cc1`, the EC50 in the series on Plasmodium falciparum [1] came to 0.285 µM; in the series with Plasmodium falciparum [3], 0.334 µM. Half-maximal cytotoxicity in series [2] (CC50) was put at 10.2 µM.
In the case of `COc1cc(NC(C)CCCN(Cc2ccc(OC)c(OC)c2)C(=O)Nc2cccc(Cl)c2Cl)c2ncccc2c1` (centres undefined), the figures for the EC50 with Plasmodium falciparum [1] and with Plasmodium falciparum [3] were 0.691 µM and 0.203 µM, respectively. In series [2], this molecule displayed a CC50 of 6.29 µM.
With `Cc1ccc(Cn2c(N3CCC(C(=O)NCc4ccc(F)cc4)CC3)nc3ccccc32)cc1`, the EC50 with Plasmodium falciparum [1] is greater than 7.51 µM; in the series with Plasmodium falciparum [3] it was 3.18 µM. This molecule also registered a CC50 in series [2] greater than 100 µM.
Consider `O=C(NC1CCN(CC(O)CN(Cc2ccccc2)S(=O)(=O)c2ccccc2)C1)c1ccco1` (centres undefined), for which the EC50 is 1.16 µM in the series on Plasmodium falciparum [1] and 0.319 µM in the series with Plasmodium falciparum [3]. This molecule also came in with a CC50 in series [2] greater than 10 µM.
As to `O=C(OC(C(=O)NCc1ccco1)c1ccc(F)cc1)c1ccco1` (centres undefined), the figures for the EC50 in the series with Plasmodium falciparum [1] and in the series on Plasmodium falciparum [3] were greater than 1.25 µM and greater than 0.327 µM, respectively. Further, the 50% cytotoxic concentration (CC50) in series [2] was greater than 10 µM.
Consider `Cc1cc(C)cc(NC(=S)NNc2ccnc3cc(Cl)ccc23)c1`, for which the EC50 stood at 1.24 µM in the series with Plasmodium falciparum [1] and 2.17 µM in the series on Plasmodium falciparum [3]. The CC50 in series [2] came to 67.7 µM.
As for `CC(=O)O[C@@H]1C(=O)[C@@]2(C)[C@H]([C@H](OC(=O)c3ccccc3)[C@@]3(O)C[C@H](OC(=O)[C@H](O)[C@@H](NC(=O)c4ccccc4)c4ccccc4)C(C)=C1C3(C)C)[C@]1(OC(C)=O)CO[C@@H]1C[C@@H]2O`, the EC50 in the series with Plasmodium falciparum [1] is 0.0982 µM; in the series with Plasmodium falciparum [3], 0.0386 µM. The same molecule gave a CC50 in series [2] of 1.21 µM.
`Cc1ccc(N2C(=O)c3sc4nnc(C)c(=O)n4c3C2=O)cc1`: the EC50 was greater than 0.595 µM in the series with Plasmodium falciparum [1] and 0.315 µM with Plasmodium falciparum [3]. Also, in series [2], the CC50 is greater than 10 µM.
Taken in the same sequence, the figures for `CCCCCn1c(SCc2ccc(C)cc2)nc2cc(C(=O)NCc3ccco3)ccc2c1=O` were greater than 12.5 µM, 3.16 µM and greater than 100 µM.
Taken in the same sequence, the figures for `Cn1c(NN=Cc2ccccc2)cc(=O)n(C)c1=O` were greater than 1.25 µM, 0.325 µM and greater than 10 µM.
For the molecule `COc1ccc(NC(=O)c2cc3cc(C4(O)CCN(Cc5cc6ccccc6[nH]5)CC4)ccc3o2)cc1`, the EC50 in the series with Plasmodium falciparum [1] is 0.272 µM; in the series on Plasmodium falciparum [3], 0.65 µM. Also, the CC50 in series [2] came to 20.5 µM.
In the case of `COc1cc(NC(=O)Cn2ccc3ccc([N+](=O)[O-])cc32)cc(OC)c1OC`, the figures for the EC50 in the series on Plasmodium falciparum [1] and with Plasmodium falciparum [3] were 0.439 µM and 0.319 µM, respectively. Also, the CC50 in series [2] was greater than 10 µM.
